Values of other authors, collected in publication PMC11966747, “Next Generation Risk Assessment of Acute Neurotoxicity from Organophosphate Exposures Using the In Vitro–In Silico Derived Dietary Comparator Ratio” (Environmental Science & Technology, 2025).
Read-outs that look alike come from different tables or passages of the source.

Target: erythrocyte AChE (Homo sapiens, UniProt P22303)
Conditions: cited from earlier work; for reported or expected adverse health outcome: human, ref Table S2
[1] = 1714 mg/kg BW (120 g) acute oral, 13 males and 2 females, ref Moon et al. 2015

Sequence of erythrocyte AChE (P22303 32-617 isoform P22303-2 limits assumed): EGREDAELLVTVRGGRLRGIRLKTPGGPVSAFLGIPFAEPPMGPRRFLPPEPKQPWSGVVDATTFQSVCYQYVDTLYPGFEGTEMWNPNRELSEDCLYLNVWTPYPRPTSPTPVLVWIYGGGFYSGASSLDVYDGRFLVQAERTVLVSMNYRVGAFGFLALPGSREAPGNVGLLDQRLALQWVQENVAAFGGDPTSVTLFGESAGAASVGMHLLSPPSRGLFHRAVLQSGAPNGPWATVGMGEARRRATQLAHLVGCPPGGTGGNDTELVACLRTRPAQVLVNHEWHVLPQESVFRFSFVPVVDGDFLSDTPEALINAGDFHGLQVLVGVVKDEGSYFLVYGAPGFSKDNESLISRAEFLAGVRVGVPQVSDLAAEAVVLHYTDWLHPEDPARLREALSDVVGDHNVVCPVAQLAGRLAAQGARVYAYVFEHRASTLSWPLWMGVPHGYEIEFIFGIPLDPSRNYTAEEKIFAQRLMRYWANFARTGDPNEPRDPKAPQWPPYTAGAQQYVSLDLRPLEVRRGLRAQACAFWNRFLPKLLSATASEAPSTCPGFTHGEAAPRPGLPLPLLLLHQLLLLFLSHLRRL

COP(=S)(OC)Oc1ccc([N+](=O)[O-])c(C)c1 [fenitrothion]
Reported erythrocyte AChE activity/inhibition (0.042 mg/kg BW single oral, 3 volunteers, ref Nosáľ and Hladká. 1968): No significant
Reported concomitant effects (signs and symptoms) (0.06 mg/kg BW single oral, 3 male volunteers, ref Meaklim et al. 2003): No significant symptoms
Reported erythrocyte AChE activity/inhibition (0.083 mg/kg BW single oral, 9 volunteers, ref Nosáľ and Hladká. 1968): No significant
Reported erythrocyte AChE activity/inhibition (0.09 mg/kg BW, first dose of repeated exposure study, 8 male and 4 female volunteers, ref Meaklim et al. 2003): No significant erythrocyte AChE
Reported erythrocyte AChE activity/inhibition (0.17 mg/kg BW single oral, 5 volunteers, ref Nosáľ and Hladká. 1968): No significant erythrocyte AChE
Reported concomitant effects (signs and symptoms) (0.18 mg/kg BW single oral, 3 male volunteers, ref Meaklim et al. 2003): No significant symptoms
Reported erythrocyte AChE activity/inhibition (0.18 mg/kg BW, first dose of repeated exposure study, 8 male and 4 female volunteers, ref Meaklim et al. 2003): No significant erythrocyte AChE
Reported erythrocyte AChE activity/inhibition (0.25 mg/kg BW single oral, 2 volunteers, ref Nosáľ and Hladká. 1968): No significant erythrocyte AChE
Reported erythrocyte AChE activity/inhibition (0.33 mg/kg BW single oral, 5 volunteers, ref Nosáľ and Hladká. 1968): No significant erythrocyte AChE
Reported concomitant effects (signs and symptoms) (0.36 mg/kg BW single oral, 3 male volunteers, ref Meaklim et al. 2003): No symptoms or adverse effects
Reported concomitant effects (signs and symptoms) (36 mg/kg BW (2.5 g) acute oral, person, ref Kojima et al. 1989): Toxic symptoms occurred
Reported concomitant effects (signs and symptoms) (71 mg/kg BW (5 g) acute oral, person, ref Yoshida and Kuroki. 2010 (original data of Koyama et al. 2006)): Toxic symptoms occurred
Reported concomitant effects (signs and symptoms) (143 mg/kg BW (10 g) acute oral, person, ref Yoshida and Kuroki. 2010 (original data of Koyama et al. 2006)): Toxic symptoms occurred
Reported concomitant effects (signs and symptoms) (214 mg/kg BW (15 g) acute oral, person five, ref Yoshida and Kuroki. 2010 (original data of Koyama et al. 2006)): Toxic symptoms occurred
Reported concomitant effects (signs and symptoms) (214 mg/kg BW (15 g) acute oral, person three, ref Yoshida and Kuroki. 2010 (original data of Koyama et al. 2006)): Toxic symptoms occurred
Reported concomitant effects (signs and symptoms) (286 mg/kg BW (20 g) acute oral, person, ref Sakamoto et al. 1984): Toxic symptoms occurred
Reported concomitant effects (signs and symptoms) (357 mg/kg BW (25 g) acute oral, person eleven, ref Yoshida and Kuroki. 2010 (original data of Koyama et al. 2006)): Toxic symptoms occurred
Reported concomitant effects (signs and symptoms) (357 mg/kg BW (25 g) acute oral, person twelve, ref Yoshida and Kuroki. 2010 (original data of Koyama et al. 2006)): Toxic symptoms occurred
Reported concomitant effects (signs and symptoms) (357 mg/kg BW (25 g) acute oral, person, ref Martinez-Chuecos et al. 1992): Toxic symptoms occurred
Reported concomitant effects (signs and symptoms) (429 mg/kg BW (30 g) acute oral, person, ref Yoshida et al. 1987): Toxic symptoms occurred
Reported concomitant effects (signs and symptoms) (429 mg/kg BW (30.0 ± 19.7 g) acute oral, 4 males and 6 females, ref Inoue et al. 2008): Toxic symptoms occurred
Reported concomitant effects (signs and symptoms) (500 mg/kg BW (35 g) acute oral, person fourteen, ref Yoshida and Kuroki. 2010 (original data of Koyama et al. 2006)): Toxic symptoms occurred
Reported concomitant effects (signs and symptoms) (500 mg/kg BW (35 g) acute oral, person two, ref Yoshida and Kuroki. 2010 (original data of Koyama et al. 2006)): Toxic symptoms occurred
Reported concomitant effects (signs and symptoms) (536 mg/kg BW (37.5 g) acute oral, person, ref Yoshida and Kuroki. 2010 (original data of Koyama et al. 2006)): Toxic symptoms occurred
Reported concomitant effects (signs and symptoms) (571 mg/kg BW (40 g) acute oral, person, ref Park and Choi. 2017): Toxic symptoms occurred
Reported concomitant effects (signs and symptoms) (714 mg/kg BW (50 g) acute oral, person eight, ref Yoshida and Kuroki. 2010 (original data of Koyama et al. 2006)): Toxic symptoms occurred
Reported concomitant effects (signs and symptoms) (714 mg/kg BW (50 g) acute oral, person four, ref Yoshida and Kuroki. 2010 (original data of Koyama et al. 2006)): Toxic symptoms occurred
Reported concomitant effects (signs and symptoms) (714 mg/kg BW (50 g) acute oral, person nine, ref Yoshida and Kuroki. 2010 (original data of Koyama et al. 2006)): Toxic symptoms occurred
Reported concomitant effects (signs and symptoms) (714 mg/kg BW (50 g) acute oral, person one, ref Yoshida and Kuroki. 2010 (original data of Koyama et al. 2006)): Toxic symptoms occurred
Reported concomitant effects (signs and symptoms) (714 mg/kg BW (50 g) acute oral, person ten, ref Yoshida and Kuroki. 2010 (original data of Koyama et al. 2006)): Toxic symptoms occurred
Reported concomitant effects (signs and symptoms) (714 mg/kg BW (50 g) acute oral, person thirteen, ref Yoshida and Kuroki. 2010 (original data of Koyama et al. 2006)): Toxic symptoms occurred
Reported concomitant effects (signs and symptoms) [1]: toxic symptoms occurred
Reported erythrocyte AChE activity/inhibition [1]: Significantly decreased
Reported concomitant effects (signs and symptoms) (1786 mg/kg BW (125.0 ± 35.4 g) acute oral, one male and one female, ref Inoue et al. 2008): Toxic symptoms occurred
reported or expected adverse health outcome (single oral 0.042 mg/kg BW, 0.042 mg/kg): negative
reported or expected adverse health outcome (single oral 0.042 mg/kg BW, listed as Fenitrothion, 0.042 mg/kg): No
reported or expected adverse health outcome (single oral 0.06 mg/kg BW, 0.06 mg/kg): negative
reported or expected adverse health outcome (single oral 0.06 mg/kg BW, listed as Fenitrothion, 0.06 mg/kg): No
reported or expected adverse health outcome (single oral 0.083 mg/kg BW, 0.083 mg/kg): negative
reported or expected adverse health outcome (single oral 0.083 mg/kg BW, listed as Fenitrothion, 0.083 mg/kg): No
reported or expected adverse health outcome (single oral 0.09 mg/kg BW, 0.09 mg/kg): negative
reported or expected adverse health outcome (single oral 0.09 mg/kg BW, listed as Fenitrothion, 0.09 mg/kg): No
reported or expected adverse health outcome (single oral 0.17 mg/kg BW, 0.17 mg/kg): negative
reported or expected adverse health outcome (single oral 0.17 mg/kg BW, listed as Fenitrothion, 0.17 mg/kg): No
reported or expected adverse health outcome (single oral 0.18 mg/kg BW, 0.18 mg/kg): negative
reported or expected adverse health outcome (single oral 0.18 mg/kg BW, listed as Fenitrothion, 0.18 mg/kg): No
reported or expected adverse health outcome (single oral 0.25 mg/kg BW, 0.25 mg/kg): negative
reported or expected adverse health outcome (single oral 0.25 mg/kg BW, listed as Fenitrothion, 0.25 mg/kg): No
reported or expected adverse health outcome (single oral 0.33 mg/kg BW, 0.33 mg/kg): negative
reported or expected adverse health outcome (single oral 0.33 mg/kg BW, listed as Fenitrothion, 0.33 mg/kg): No
reported or expected adverse health outcome (single oral 0.36 mg/kg BW, 0.36 mg/kg): negative
reported or expected adverse health outcome (single oral 0.36 mg/kg BW, listed as Fenitrothion, 0.36 mg/kg): No
reported or expected adverse health outcome (single oral 36 mg/kg BW, 36 mg/kg): positive
reported or expected adverse health outcome (single oral 36 mg/kg BW, listed as Fenitrothion, 36 mg/kg): Yes
reported or expected adverse health outcome (single oral 71 mg/kg BW, 71 mg/kg): positive
reported or expected adverse health outcome (single oral 71 mg/kg BW, listed as Fenitrothion, 71 mg/kg): Yes
reported or expected adverse health outcome (single oral 143 mg/kg BW, 143 mg/kg): positive
